In patent US20200352905A1, “6-(2,4-DICHLOROPHENYL)-5-[4-[(3S)-1-(3-FLUOROPROPYL)PYRROLIDIN-3-YL]OXYPHENYL]-8,9-DIHYDRO-7H-BENZO[7]ANNULENE-2-CARBOXYLIC ACID FOR USE IN METASTATIC OR ADVANCED BREAST CANCER PATIENTS” (SANOFI, priority 2019, published 2020):
“Also recorded” adds a separate entry of the source.

Columns and labels:
[1] = Pilot food effect on PK (moderate fat breakfast, Day 3 Cycle 1, Part A); type: in vivo, human
Protocol: Pilot food effect: A pilot food effect is assessed by PK sampling after drug administration with a moderate fat breakfast on Day 3 of Cycle 1 in all patients treated in Part A. All other dosing in Part A is taken in fasted condition. If results from the QD dosing regimen allow conclusions to be drawn, this will not be implemented for other dosing regimens (eg, BID) that are explored.
(§1) For the QD regimen, during Cycle 1, one dose is taken on Day 1 in fasting condition, no dose on Day 2 and repeated administration starts from Day 3. On Day 3 only, the dose is taken in fed condition for a food effect evaluation, and then all subsequent administrations are taken in fasted condition, and at approximately the same time each day (±3 hours). From the conclusions drawn with the initial QD dose regimen, patients treated with other dose regimens are allowed to take Compound (1) in fasted or fed condition. For the BID regimen, the 600 mg dose is split in two drug administrations: 300 mg taken two times a day 12 hours apart (i.e. 2×300 mg)±1 hour with or without food (with one dose only taken in the morning on Day 1, no dose on Day 2 and then repeated BID dosing from Day 3).
The food effect is assessed by comparing AUC0-24 and Cmax between Day 1/Cycle 1 and Day 3/Cycle 1 in Part A.

[2] = Phase 1/2 study TED14856 Part A (dose escalation): safety, DLT, TEAEs; type: in vivo
Protocol: This is an open-label, non-comparative, dose escalation and dose expansion, safety, efficacy, PK and PD evaluation study of compound (1) administered orally as monotherapy.
Dose escalation is initiated with a once daily (QD) schedule with a starting dose of 20 mg/day. Dose escalation is expected to proceed according to the Table A below. Intra-patient dose escalation is not permitted.
Part A of this study is designed using the 3+3 concept: 3 to 6 patients are treated at each dose level, depending on DLTs observed in the first 3 patients. If one of the first 3 evaluable patients experiences DLT during Cycle 1, this cohort is expanded with a total of up to 6 patients. If less than 1 out of 3 patients or less than 2 out of 6 patients experience DLTs at a given dose level, the dose escalation is proceeded to the next dose level.
as §1
Incidence of study treatment-related DLTs at Cycle 1 (Day 1 to Day 28). DLT is defined as the occurrence of any of the following treatment-emergent adverse events (TEAEs) related to the study therapy using NCI-CTCAE (v4.03): • Any Grade ≥3 non-hematological toxicity, except: • Grade 3 nausea and vomiting resolving to Grade ≤1 within 48 hours, with or without adequate antiemetic treatment, • Grade 3 diarrhea, if controlled with adequate antidiarrheal therapy and lasting less than 48 hours. • Any Grade ≥3 hematological toxicity, except • Grade 3 anemia, • Grade 4 neutropenia <7 days, • Grade 3 neutropenia without fever or infection, • Grade 3 thrombocytopenia without bleeding. • Any elevated total serum bilirubin >2×ULN. • Any toxicity related to study treatment, resulting in omission of the study treatment for 7 days or more during Cycle 1. • A TEAE that in the opinion of the study committee is possibly or probably study treatment-related and is of potential clinical significance such that further dose escalation would expose patients to unacceptable risk.
These TEAEs are considered as study treatment-related in the absence of evidence to the contrary and if not related to disease progression. If multiple toxicities are seen, the presence of DLT will be based on the most severe experienced toxicity. At the end of Cycle 1, each patient must be assessed by the Investigator as to whether or not the patient experienced DLT, and this information must be recorded within the appropriate screen of the electronic case report forms (eCRFs) and an electronic DLT notification (either DLT or not) is sent to the Sponsor. Patients can continue the treatment after resolution (Grade 1) of the adverse event (AE) or to their baseline status. Patients need to complete at least 75% of the intended doses at Cycle 1 to be evaluable and shall have ^18FES-PET scans evaluable at baseline and between Day 11 and Day 15 to be evaluable for DLTs in Part A.
Safety population includes all patients exposed to at least one dose of the study treatment.
Study treatment-related DLTs occurring during Cycle 1 are assessed and analyzed on the DLT-evaluable population. In addition, AEs meeting DLT criteria occurring in any additional cycle are assessed and analyzed on the safety population. […]

For `O=C(O)c1ccc2c(c1)CCCC(c1ccc(Cl)cc1Cl)=C2c1ccc(O[C@H]2CCN(CCCF)C2)cc1` [compound (1), 6-(2,4-dichlorophenyl)-5-[4-[(3S)-1-(3-fluoropropyl)pyrrolidin-3-yl]oxyphenyl]-8,9-dihydro-7H-benzo[7]annulene-2-carboxylic acid], the Tmax ([1]; female, human, plasma, oral, overall across doses, read-out: delay of median tmax with food) was roughly 1 h, the “increase of exposure with food” value ([1]; overall across doses) was “about 45%” and the “food effect on exposure” value ([1]; regardless of dose level) was “did not result in a major effect on exposure; also recorded: minimal”. The “Patients with related TEAE: Urinary tract infection” value ([2]; Part A, N=16) was 0 n, the “maximum tolerated dose (MTD)” value ([2]; Part A, up to 600 mg QD) was “not reached; also recorded: no MTD observed” and the “patients who died during study period” value ([2]; Part A, 3 disease progression, 1 unknown reason) was 4 patients. The “patients with serious TEAEs” value ([2]; Part A, all considered not associated with compound (1)) was 3 patients, the “Patients with Gr3 TEAE: Abdominal pain upper” value ([2]; female, human, in vivo) was 0 n and the “Patients with Gr3 TEAE: Arthralgia” value ([2]; female, human, in vivo) was 0 n. The “Patients with Gr3 TEAE: Asthenia” value ([2]; female, human, in vivo) was 0 n, the “Patients with Gr3 TEAE: Constipation” value ([2]; female, human, in vivo) was 0 n and the “Patients with Gr3 TEAE: Cough” value ([2]; female, human, in vivo) was 0 n. The “Patients with Gr3 TEAE: Decreased appetite” value ([2]; female, human, in vivo) was 0 n, the “Patients with Gr3 TEAE: Diarrhea” value ([2]; female, human, in vivo) was 0 n and the “Patients with Gr3 TEAE: Dry skin” value ([2]; female, human, in vivo) was 0 n. The “Patients with Gr3 TEAE: Dysgeusia” value ([2]; female, human, in vivo) was 0 n, the “Patients with Gr3 TEAE: Hot flush” value ([2]; female, human, in vivo) was 0 n and the “Patients with Gr3 TEAE: Hypertension” value ([2]; female, human, in vivo) was 0 n. For the same compound, the “Patients with Gr3 TEAE: Hypoaesthesia” value ([2]; female, human, in vivo) was 0 n, the “Patients with Gr3 TEAE: Musculoskeletal chest pain” value ([2]; female, human, in vivo) was 0 n and the “Patients with Gr3 TEAE: Myalgia” value ([2]; female, human, in vivo) was 0 n. For the same compound, the “Patients with Gr3 TEAE: Nasopharyngitis” value ([2]; female, human, in vivo) was 0 n, the “Patients with Gr3 TEAE: Nausea” value ([2]; female, human, in vivo) was 0 n and the “Patients with Gr3 TEAE: Night sweat” value ([2]; female, human, in vivo) was 0 n. The “Patients with Gr3 TEAE: Pain” value ([2]; female, human, in vivo) was 0 n, the “Patients with Gr3 TEAE: Photophobia” value ([2]; female, human, in vivo) was 0 n and the “Patients with Gr3 TEAE: Rash” value ([2]; female, human, in vivo) was 0 n. For the same compound, the “Patients with Gr3 TEAE: Upper respiratory tract infection” value ([2]; female, human, in vivo) was 0 n, the “Patients with Gr3 TEAE: Vomiting” value ([2]; female, human, in vivo) was 0 n and the “Patients with related Gr3 TEAE: ALL” value ([2]; female, human, in vivo) was 0 n. The “Patients with related Gr3 TEAE: Abdominal pain upper” value ([2]; female, human, in vivo) was 0 n, the “Patients with related Gr3 TEAE: Arthralgia” value ([2]; female, human, in vivo) was 0 n and the “Patients with related Gr3 TEAE: Asthenia” value ([2]; female, human, in vivo) was 0 n. The “Patients with related Gr3 TEAE: Back pain” value ([2]; female, human, in vivo) was 0 n, the “Patients with related Gr3 TEAE: Constipation” value ([2]; female, human, in vivo) was 0 n and the “Patients with related Gr3 TEAE: Cough” value ([2]; female, human, in vivo) was 0 n. For the same compound, the “Patients with related Gr3 TEAE: Decreased appetite” value ([2]; female, human, in vivo) was 0 n, the “Patients with related Gr3 TEAE: Diarrhea” value ([2]; female, human, in vivo) was 0 n and the “Patients with related Gr3 TEAE: Dry skin” value ([2]; female, human, in vivo) was 0 n. The “Patients with related Gr3 TEAE: Dysgeusia” value ([2]; female, human, in vivo) was 0 n, the “Patients with related Gr3 TEAE: Dyspnoea” value ([2]; female, human, in vivo) was 0 n and the “Patients with related Gr3 TEAE: Fatigue” value ([2]; female, human, in vivo) was 0 n. For the same compound, the “Patients with related Gr3 TEAE: Hot flush” value ([2]; female, human, in vivo) was 0 n, the “Patients with related Gr3 TEAE: Hypertension” value ([2]; female, human, in vivo) was 0 n and the “Patients with related Gr3 TEAE: Hypoaesthesia” value ([2]; female, human, in vivo) was 0 n. The “Patients with related Gr3 TEAE: Musculoskeletal chest pain” value ([2]; female, human, in vivo) was 0 n, the “Patients with related Gr3 TEAE: Myalgia” value ([2]; female, human, in vivo) was 0 n and the “Patients with related Gr3 TEAE: Nasopharyngitis” value ([2]; female, human, in vivo) was 0 n. The “Patients with related Gr3 TEAE: Nausea” value ([2]; female, human, in vivo) was 0 n, the “Patients with related Gr3 TEAE: Night sweat” value ([2]; female, human, in vivo) was 0 n and the “Patients with related Gr3 TEAE: Pain” value ([2]; female, human, in vivo) was 0 n. For the same compound, the “Patients with related Gr3 TEAE: Photophobia” value ([2]; female, human, in vivo) was 0 n, the “Patients with related Gr3 TEAE: Rash” value ([2]; female, human, in vivo) was 0 n and the “Patients with related Gr3 TEAE: Upper respiratory tract infection” value ([2]; female, human, in vivo) was 0 n. For the same compound, the “Patients with related Gr3 TEAE: Urinary tract infection” value ([2]; female, human, in vivo) was 0 n, the “Patients with related Gr3 TEAE: Vomiting” value ([2]; female, human, in vivo) was 0 n and the “Patients with related TEAE: Cough” value ([2]; female, human, in vivo) was 0 n. For the same compound, the “Patients with related TEAE: Dysgeusia” value ([2]; female, human, in vivo) was 0 n, the “Patients with related TEAE: Hypoaesthesia” value ([2]; female, human, in vivo) was 0 n and the “Patients with related TEAE: Musculoskeletal chest pain” value ([2]; female, human, in vivo) was 0 n. The “Patients with related TEAE: Nasopharyngitis” value ([2]; female, human, in vivo) was 0 n, the “Patients with related TEAE: Rash” value ([2]; female, human, in vivo) was 0 n and the “Patients with related TEAE: Upper respiratory tract infection” value ([2]; female, human, in vivo) was 0 n. For the same compound, the “serious TEAEs reported” value ([2]; female, human, in vivo) was 4.
